# Values quoted from earlier work as cited in US20040039017A1, “Urotensin-II receptor antagonists” (priority 2000, published 2004).
# Tested on: rat-isolated aorta
# Details: Ames et al. Nature 1999, 401, 282
compound,measurement,value
CC(C)[C@H](NC(=O)[C@@H]1CSSC[C@H](NC(=O)[C@H](CC(=O)O)NC(=O)[C@@H]2CCCN2C(=O)[C@@H](NC(=O)[C@@H](N)CCC(=O)O)[C@@H](C)O)C(=O)N[C@@H](Cc2ccccc2)C(=O)N[C@@H](Cc2c[nH]c3ccccc23)C(=O)N[C@@H](CCCCN)C(=O)N[C@@H](Cc2ccc(O)cc2)C(=O)N1)C(=O)O [Human Urotensin-II],contractile activity,most potent contractile agonist identified to date
